Laboratory results taken from patent US11931335B2, “Enhancing autophagy or increasing longevity by administration of urolithins or precursors thereof” (Amazentis SA, priority 2012, dated 2024).
Entries after “also recorded” stand apart in the source; their conditions may differ.

How the values were obtained:
[1] = tested on: C. elegans wild-type Bristol N2; assay: Lifespan of wild-type C. elegans; assay type: in vivo; conditions: for Mean Life Extension (%): Genotype: N2, fed live E. coli (OP50); for median lifespan increased by: FIG. 5; for Lifespan extension compared to control (%): 50 μM UA vs 1% DMSO
Procedure: C. elegans strains were cultured at 20° C. on nematode growth media (NGM) agar plates seeded with E. coli strain OP50. Strain used was wild-type Bristol N2 provided by the Caenorhabditis Genetics Center (University of Minnesota). All Compounds were dissolved in DMSO. Animals were exposed to compounds from eggs on plates seeded with live OP50 bacteria. Control plates were prepared with the corresponding concentrations of DMSO (0.1%). For lifespan tests, worms were observed using a Nikon SMZ1500 stereomicroscope (Nikon, Melville, NY, USA). […] After 3 days (corresponding to day 0), newly developed 60 to 100 L4 worms were used per condition, scored and transferred to fresh plates every 3 days starting from day 1 (young adult worms). All lifespan experiments were performed at 20° C.
(§1) Lifespan assays were performed with (A) wild-type (N2), (B) sir-2.1(ok434) mutant, (C) aak-2(ok524), (D) daf-16(mu86), (E) eat-2(ad465) and (F) daf-2(e1370) mutant strains of C. elegans maintained during their full life on plates supplemented with either 50 μM of urolithin A or with a control treatment and seeded with OP50 bacteria. Control plates without urolithin A contained an equivalent concentration of DMSO. Worm lifespan assays were performed at 20° C.

[2] = tested on: C. elegans fed vps-34 RNAi; assay: Lifespan with RNAi against vps-34; assay type: in vivo; conditions: 50 μM; vs empty vector; FIG. 10B
Procedure: Lifespan tests were performed as described. Mouchiroud L et al. (2011) Aging Cell 10:39-54. Briefly, worms were observed using a Nikon SMZ1500 stereomicroscope (Nikon, Melville, NY, USA). Briefly, 10 L4 worms were transferred on plates containing NGM medium with vehicle (DMSO 0.1%, final concentration) or urolithin A dissolved in DMSO (final concentration 50 μM) and seeded with E. coli RNAi clones as indicated. After 3 days (corresponding to day 0), newly developed 60-100 L4 worms were used per condition, scored and transferred to fresh plates every 3 days starting from day 1 (young adult worms). All lifespan experiments were performed at 20° C.
Survival analyses were performed using the Kaplan Meier method and the significance of differences between survival curves calculated using the log rank test. Differences between two groups were assessed using two-tailed t-tests. Analysis of variance, assessed by Bonferroni's multiple comparison test, was used when comparing more than two groups. The statistical software used was GraphPad Prism 5 (GraphPad Software, Inc.) and all p-values <0.05 were considered significant.
Gene silencing was carried out as previously described by using the RNA interference (RNAi) process. Mouchiroud L et al. (2011) Aging Cell 10:39-54. In C. elegans, RNAi is made by feeding. […]

[3] = tested on: eat-2(ad465) mutant C. elegans; assay: Lifespan assay, eat-2 mutant C. elegans; assay type: in vivo
Procedure: as §1
eat-2 encodes a protein involved in pharyngeal pumping.

aged C57BL/6J mice [4] = assay: Grip test in aged mice; assay type: in vivo, mouse; conditions: high fat diet, 50 mg/kg/day, 26 weeks, FIG. 22
Procedure: To examine the effects of urolithin A treatment on muscle function in aged mammals, 17-month-old C57BL/6J mice were treated with either a high fat rodent diet or a high fat rodent diet containing urolithin A mixed with food to reach a dosing of 50 mg/kg/day delivered to the mice.
Following 26 weeks of treatment with urolithin A, mice were assessed for their neuromuscular function by means of a grip test. Using the grip test, one can measure the forelimb grip strength of mice. Mice were placed on a grid to enable their fore paws grasp the support. To measure the grip strength, mice are pulled backward in the sensor axis until they are no longer able to hold the grid.

aged C57BL/6J mice [5] = assay: Locomotor activity by infrared detection in aged mice; assay type: in vivo, mouse; conditions: 50 mg/kg/day, 34 weeks, 12 hour dark period, FIG. 23
Procedure: Locomotor activity may be also assessed by measuring animal movements using infrared detection. To determine the effects of urolithin A on spontaneous locomotor activity in aged animals, 16-month-old C57BL/6J mice were treated with either a standard rodent diet or a diet containing urolithin A mixed with food to reach a dosing of 50 mg/kg/day delivered to mice. Following 34 weeks of treatment with urolithin A, mice were placed in a locomotor activity monitoring system, TSE Systems. Infrared transmitters and receivers are placed in the x, y, and z axis. Interruption of the infrared beams in the x, y axis by the passage of the mouse, allows for a measurement of the horizontal movement (ambulation). Interruption of the infrared beams in the z axis by the mouse, allows for the measurement of rearing behavior. Each beam interruption results in one count being recorded. Total counts were measured for each 30 minute period over a two day period. The total counts observed during the 12 hour dark period, which corresponds to the time of highest activity in mice, were summed for each animal.

[6] = tested on: human primary skeletal muscle cells; assay: Autophagy western blot in human primary myoblasts; assay type: cell-based; conditions: 10 μM, 20 μM, and 50 μM, 16 hours
Procedure: Human primary skeletal myocytes were cultured in vitro and exposed to increasing concentrations of urolithin A, including 10 μM, 20 μM, and 50 μM for 16 hours. Human skeletal myoblasts were grown in DMEM plus 2% horse serum. Control cells were treated with DMSO at an equivalent final concentration for the same period and served as the untreated control.
At the end of treatment, cells were lysed with RIPA buffer and applied to SDS-PAGE and analyzed by western blot. Protein expression levels were examined for autophagy-related proteins LC3-I and LC3-II (Cell Signaling antibody #4108), p62 (Cell Signaling antibody #5114), AMPKα (Cell Signaling antibody #2603), and p-AMPKα(Cell Signaling antibody #2531). The housekeeping protein, R-actin (Cell Signaling Antibody #4967) level was measured as a loading control.

O=c1oc2cc(O)ccc2c2ccc(O)cc12 [Urolithin A, urolithin A]
Mean Life Extension (%) ([1]; dose 10 μM): 27.7%
Mean Life Extension (%) ([1]; dose 50 μM): 75%
median lifespan increased by ([1]; concentration of 50 µM): 75%
effect on lifespan in C. elegans ([1]; concentration of 50 µM, exposed from eggs, FIG. 4): extended the lifespan
median lifespan increased by ([1]; concentration of 10 M): 27.7%
Median lifespan ([1]; wild-type (N2), 50 μM UA): 28 days
Lifespan extension compared to control (%) ([1]; wild-type (N2)): 75%
Lifespan extension compared to control (%) ([1]; wild-type (N2), listed as UA): +75%
lifespan extension by urolithin A under vps-34 RNAi [2]: suppressed; also recorded: totally suppress the lifespan phenotype
Median lifespan ([3]; 50 μM UA): 37 days
Lifespan extension compared to control (%) ([3]; 50 μM UA vs 1% DMSO): +76.2%
forelimb grip strength (aged C57BL/6J mice [4]): greater grip strength
increase in ambulation (aged C57BL/6J mice [5]): 14%
increase in rearing (aged C57BL/6J mice [5]): 25%
levels of p62 [6]: decrease
ratio of pAMPKα/AMPKα [6]: increasing several fold
ratio of LC3-II to LC3-I ([6]; FIG. 17): dose-dependent increase
